# Measured values reported in patent US20210310069A1, “METHODS FOR DETERMINING GENE-ALPHA TOCOPHEROL INTERACTIONS” (BodySync. Inc., priority 2009, published 2021).
# Experiments:
# [1] = subjects who took vitamin E supplements; adjusted for age, smoking status, intake of carotene and vitamin C; cited from earlier work
# TNFα = TNFα level of LPS-cultured PBMCs (BD CBA Human Inflammation Kit) from healthy men after 6 weeks of αT supplementation; type: in vivo; conditions: for PMBC cytokine levels TNFα mean: 6-weeks
# From the text: (§1) Healthy middle-aged male volunteers (mean age 52.7±10 years; median years) were given dietary supplements of either […] (moderate dose), or […] (high dose) RRR-α tocopherol per day for six weeks. Subject numbers in each group were 57 and 102 respectively. All research participants gave written informed consent to take part. The study protocol was approved by the Southampton University Hospitals Trust Clinical Ethics Committee authorized the research protocol. Study participants continued with their normal diets while receiving the supplements. Subjects continued with their normal daily activities while on the study but visited the Wellcome Trust Clinical Research Facility at Southampton University Hospital Trust, after an overnight fast, at the beginning and end of the supplementation period. At the visit weight, height, and waist and hip circumference were measured, and blood samples taken for the measurement of cytokines.
# (§2) Alpha-tocopherol in plasma was determined using fluorimetry according to methods described elsewhere (11). The limit of detection for αT was 7.2 pmol/L. Peripheral blood mononuclear cells (PBMCs) were prepared from heparinized whole blood samples using Leucosep sterile centrifuge tubes (Greiner Bio-one, Germany) and Histopaque gradient solution (Sigma-Aldrich Inc, MO, USA) and cultured in the presence of Lipopolysaccharide (LPS) (Sigma-Aldrich Inc, MO, USA) for 24h after which time the supernatants were removed and stored. Interleukin-6 (IL-6), tumor necrosis factor (TNF) and interleukin-1β (IL-1β) protein levels were quantitatively measured by the BD CBA Human Inflammation Kit (BD Bioscience, San Jose, Calif., USA). The operations were performed according to the manufacturer's instructions. The intensity of the fluorescence signal was acquired on a fluorescence activated cell sorter (FACS) flow cytometer (BD Becton-Dickinson), and analyzed using CBA software. The concentration range for detection using this assay is 20-5000 pg/ml for each of the proteins.
# (§3) A linear regression was carried out where the outcome variable was Log(DeltaCk+minDeltaCk) Where Ck stands for IL-1, IL-6 or TNF-alpha. And DeltaCk=Followup-Baseline serum cytokine levels, and minDelta the most negative DeltaCk (<0) observed in the population baseline value, alpha tocopherol dose group, smoking status (age+BMI) were included as covariates.
# IL-6 = IL-6 level of LPS-cultured PBMCs (BD CBA Human Inflammation Kit) from healthy men after 6 weeks of αT supplementation; type: in vivo; conditions: for PMBC cytokine levels IL-6 mean: 6-weeks
# From the text: as §1, §2, §3
# [2] = Fasting plasma alpha-tocopherol by fluorimetry in healthy men supplemented with αT for six weeks; type: in vivo, human; conditions: for fasting plasma αT mean: 6-weeks
# From the text: as §1, §2
# IL-1 = IL-1 (IL-1β) level of LPS-cultured PBMCs (BD CBA Human Inflammation Kit) from healthy men after 6 weeks of αT supplementation; type: in vivo; conditions: for PMBC cytokine levels IL-1 mean: 6-weeks
# From the text: as §1, §2, §3
compound,measurement,setting,value
vitamin E,reduction of major coronary heart disease,[1],30%
"Cc1c(C)c2c(c(C)c1O)CC[C@@](C)(CCC[C@H](C)CCC[C@H](C)CCCC(C)C)O2 [αT, RRR-α tocopherol]",PMBC cytokine levels TNFα mean,TNFα; 75 IU/d,1.48 ng/L
same,PMBC cytokine levels TNFα mean,TNFα; 600 IU/d,1.31 ng/L
same,change in TNFα by genotype,"TNFα; GA genotype at TNF-238, 6 weeks, p<0.016 after correcting for multiple tests",decrease
same,change in serum levels of TNFα,"TNFα; both treatment groups, 6 weeks",increase
same,change in serum levels of TNFα by genotype,"TNFα; genotypes AG and AA for IL10-1082 SNP and GG for TNF-238 SNP, 6 weeks",increase
same,increase in TNFα after supplementation,"TNFα; low-dose group (75 IU/d), 6 weeks, p<0.011 after adjusting for age, baseline levels, smoking status and BMI",40.5%
same,PMBC cytokine levels IL-6 mean,IL-6; 75 IU/d,18.71 ng/L
same,PMBC cytokine levels IL-6 mean,IL-6; 600 IU/d,16.73 ng/L
same,change in IL-6 serum levels by genotype,"IL-6; GSTP1 313 AG and GG carriers (so in the source), 6 weeks",increase
same,change in IL-6 levels by genotype,"IL-6; SOD-28 TT versus CT and CC variants, 6 weeks, not significant after adjusting for multiple tests",lower increase
same,change in serum levels of IL-6,"IL-6; both treatment groups, 6 weeks",increase
same,change in IL-6 levels by genotype,"IL-6; variant homozygotes GSTP1 313 (GG), 6 weeks, p<0.019",decreased levels
same,fasting plasma αT mean,"[2]; 75 IU/d, n = 57 healthy males",22.6 µmol/L
same,fasting plasma αT mean,"[2]; 600 IU/d, n = 102 healthy males",31.3 µmol/L
same,change in plasma fasting levels of alpha-tocopherol,"[2]; both dose groups (75 and 600 IU/d), 6 weeks",increase
same,PMBC cytokine levels IL-1 mean,IL-1; 75 IU/d,7.38 ng/L
same,PMBC cytokine levels IL-1 mean,IL-1; 600 IU/d,6.93 ng/L
same,change in IL1 levels by genotype,"IL-1; GG carriers at IL10-1082, 6 weeks",lower increase
same,change in IL-1 levels by genotype,"IL-1; GG genotype at GSTP1 313, 6 weeks, not significant after FDR correction",decrease
same,change in serum levels of IL-1,"IL-1; both treatment groups, 6 weeks",increase
same,change in IL1 levels by genotype,"IL-1; common genotypes at IL10-592 (CC) and IL10-819, 6 weeks",lower increase
